Laboratory results taken from US11427869B2, “T cell balance gene expression, compositions of matters and methods of use thereof” (THE BROAD INSTITUTE, INC., priority 2015, dated 2022).

How the values were obtained:
Type in all cases: cell-based, mouse
WT Th17 cells = test: Nanostring nCounter Th17 codeset (312 genes), SFA- or control-treated WT Th17 cells; conditions: WT Th17 cells + SFA
Excerpt: Applicants studied the contribution of lipid saturation to Th17 cell pathogenicity. […] Applicants analyzed the expression of a 312 gene signature of Th17 cell differentiation and function (Yosef et al., 2013) in SFA- or control-treated WT Th17 cells and in PUFA- or control-treated CD5L−/− Th17 cells differentiated with TGF-81+IL-6.
T cell differentiation culture. Naïve CD4+CD44−CD62L+CD25− T cells or Effector memory CD4+CD44+CD62L− were sorted using BD FACSAria sorter and activated with plate-bound anti-CD3 and anti-CD28 antibodies (both at 2 μg/ml) in the presence of cytokines at a concentration of 2.5×10^5 cells/ml. For Th17 differentiation: 2 ng/ml of rhTGFβ1, 2 ng/ml of rhTGFβ3, 25 ng/ml rmIL-6, 20 ng/ml rmIL-18 (all from Miltenyi Biotec) and 20 ng/ml rmIL-23 (R & D systems) were used at various combinations as specified in figures. For Th1 differentiation, 20 ng/ml rmIL-12 (R & D systems); for Th2 differentiation 20 ng/ml rmIL-4 (Miltenyi Biotec); for iTreg differentiation, 2.5 ng/ml of rhTGFβ1 were used (Miltenyi Biotec). For differentiation experiments, cells were harvested at 48 hours. For restimulation experiments, cells were differentiated for 48 hours and resuspended in fresh media with no additional cytokines for 48-72 hours. Cells were re-stimulated with PMA/ionomycin for four hours before analysis for cytokines by intracellular cytokine staining. For experiments with exogenous fatty acid, fatty acids were purchased and resuspended first with serum-free media containing BSA prior being added to culture.
Nanostring nCounter. Nanostring nCounter platform (NanoString Technologies) is used to measure the number of RNA transcripts in RNA samples (FIG. 16I, FIG. 18D). A codeset containing 312 signature genes of Th17 cell differentiation and function as well as 4 additional house-keeping genes were custom-made (Yosef et al., 2013) and used in these experiments. Experimental procedures as detailed by the manufacturer is strictly followed.

Th17 cells [1] = test: qPCR of gene expression (cyp51, sc4mol, pathogenicity signature) in Th17 cells with exogenous fatty acid
Th17 cells [2] = test: Flow cytometry and intracellular cytokine staining of T cells; conditions: WT Th17 cells differentiated with TGF-β1+IL-6 and expanded using IL-23 with fatty acid
Protocol: WT, CD5L−/− and Rorγt−/− Th17 cells were differentiated with TGF-1+IL-6 for 96h. […] Three independent experiments were performed. […] (FIG. 18E) Naïve WT T cells were activated without polarizing cytokines (Th0) and infected with retrovirus expressing Rorγt in the presence of control-RV or CD5L-RV with or without FF-MAS (5 uM) as a source of Rorγt ligand. Each dot represents an independent infection. (FIG. 18F) WT or CD5L−/− naïve cells were differentiated with TGF-β1+IL-6. At 48h, cells were replated in fresh media with either control or FF-MAS (5 uM) as a source of Rorγt ligand. Cells were harvested for FACS analysis 72h later.
Flow cytometry and intracellular cytokine staining. Sorted naïve T cells were stimulated with phorbol 12-myristate 13-acetate (PMA) (50 ng/ml, Sigma-aldrich), ionomycin (1 μg/ml, Sigma-aldrich) and a protein transport inhibitor containing monensin (Golgistop) (BD Biosciences) for 4 h before detection by staining with antibodies.

[3] = Th17 cells differentiated with TGF-β1+IL-6

## CCCCCCCCCCCCCCCC(=O)O [SFA, palmitic acid]
WT Th17 cells
  Irf7 expression (Nanostring), normalized to WT: 0.54
  Irf8 expression (Nanostring), normalized to WT: 0.99
  Itga3 expression (Nanostring), normalized to WT: 0.50
  Jak3 expression (Nanostring), normalized to WT: 0.91
  Jun expression (Nanostring), normalized to WT: 1.11
  Kat2b expression (Nanostring), normalized to WT: 0.69
  Klf9 expression (Nanostring), normalized to WT: 0.68
  Klf10 expression (Nanostring), normalized to WT: 0.91
  Klrd1 expression (Nanostring), normalized to WT: 0.92
  Lad1 expression (Nanostring), normalized to WT: 0.91
  Lgals3bp expression (Nanostring), normalized to WT: 0.58
  Litaf expression (Nanostring), normalized to WT: 1.48
  Lpxn expression (Nanostring), normalized to WT: 0.85
  Maf expression (Nanostring), normalized to WT: 0.79
  Maff expression (Nanostring), normalized to WT: 0.99
  Map3k5 expression (Nanostring), normalized to WT: 0.80
  Mbnl3 expression (Nanostring), normalized to WT: 0.71
  Mina expression (Nanostring), normalized to WT: 0.72
  Mt1 expression (Nanostring), normalized to WT: 1.56
  Mt2 expression (Nanostring), normalized to WT: 1.33
  Nfkbie expression (Nanostring), normalized to WT: 0.69
  Nkg7 expression (Nanostring), normalized to WT: 0.62
  Notch2 expression (Nanostring), normalized to WT: 0.78
  Oas2 expression (Nanostring), normalized to WT: 1.28
  Peli2 expression (Nanostring), normalized to WT: 0.88
  Plac8 expression (Nanostring), normalized to WT: 1.04
  Plagl1 expression (Nanostring), normalized to WT: 2.19
  Pmepa1 expression (Nanostring), normalized to WT: 0.74
  Pou2af1 expression (Nanostring), normalized to WT: 1.30
  Prkd3 expression (Nanostring), normalized to WT: 0.73
  Pstpip1 expression (Nanostring), normalized to WT: 1.16
  Rab33a expression (Nanostring), normalized to WT: 1.23
  Rasgrp1 expression (Nanostring), normalized to WT: 0.75
  Rel expression (Nanostring), normalized to WT: 1.20
  Rela expression (Nanostring), normalized to WT: 0.70
  Rfk expression (Nanostring), normalized to WT: 0.79
  Rorc expression (Nanostring), normalized to WT: 1.25
  Sap30 expression (Nanostring), normalized to WT: 1.23
  Sema7a expression (Nanostring), normalized to WT: 1.44
  Serpinb1a expression (Nanostring), normalized to WT: 0.56
  Ski expression (Nanostring), normalized to WT: 0.88
  Slc6a6 expression (Nanostring), normalized to WT: 0.79
  Smad3 expression (Nanostring), normalized to WT: 0.81
  Socs3 expression (Nanostring), normalized to WT: 0.78
  Spp1 expression (Nanostring), normalized to WT: 1.10
  Spry1 expression (Nanostring), normalized to WT: 1.57
  Stat4 expression (Nanostring), normalized to WT: 0.77
  Stat5b expression (Nanostring), normalized to WT: 0.82
  Stat6 expression (Nanostring), normalized to WT: 0.73
  Sult2b1 expression (Nanostring), normalized to WT: 0.38
  Tal2 expression (Nanostring), normalized to WT: 1.15
  Tcf4 expression (Nanostring), normalized to WT: 0.72
  Tgfb1 expression (Nanostring), normalized to WT: 0.83
  Tgfb3 expression (Nanostring), normalized to WT: 0.88
  Tgfbr3 expression (Nanostring), normalized to WT: 0.58
  Tgm2 expression (Nanostring), normalized to WT: 0.78
  Tmem229b expression (Nanostring), normalized to WT: 0.69
  Tnfrsf4 expression (Nanostring), normalized to WT: 1.28
  Tnip2 expression (Nanostring), normalized to WT: 0.90
  Trat1 expression (Nanostring), normalized to WT: 0.61
  Trim25 expression (Nanostring), normalized to WT: 0.89
  Trps1 expression (Nanostring), normalized to WT: 0.84
  Tsc22d3 expression (Nanostring), normalized to WT: 1.06
  Ubiad1 expression (Nanostring), normalized to WT: 0.94
  Vav3 expression (Nanostring), normalized to WT: 0.56
  Xrcc5 expression (Nanostring), normalized to WT: 0.93
  nrp1 expression (Nanostring), normalized to WT: 0.74
  pou2f1 expression (Nanostring), normalized to WT: 1.34
Th17 cells [1]; CD5L−/− Th17 cells (TGF-β1+IL-6), fatty acid 25 uM added at 48h, analyzed at 96h
  expression of cyp51 and sc4mol mRNA: modest effect
Th17 cells [1]; [3]
  Il22 expression (qPCR): increased
  effector molecule expression of the pathogenicity signature (Il10, Il23r, Ccl5, Csf2, Lag3; qPCR): reciprocally regulated
Th17 cells [2]
  IL-17 and IL-23R expression: only slightly increased
